Experimental findings from patent US8481551B2, “Gyrase and topoisomerase IV inhibitors” (Vertex Pharmaceuticals Incorporated, priority 2011, dated 2013) are described below.

Where two headings read alike, the source gives them in different places.

Data set [1] is described as follows: Pharmacokinetics, monkey oral study. The format is in vivo, cynomolgus monkeys. To be noted: for AUC: male, cynomolgus monkey, plasma, po, monkey plasma, label = analyte. An excerpt: (§1) Pharmacokinetic Data Analysis.
(§2) Statistical Data Analysis.
(§3) Plasma concentration vs. time data was subjected to noncompartmental pharmacokinetic (PK) analysis.

Data set [2] can be described thus: Pharmacokinetics, rat oral study. The format is in vivo, Sprague Dawley rats. The conditions noted are these: male, Sprague Dawley, label = analyte; for Cmax: read-out: Cmax/C0.
Text: as §1, §2, §3

In the next data set the test system is Escherichia coli. Put plainly: Gyrase MIC against Gram negatives, microdilution broth method (Protocol 2). The data set is classed as cell-based. To be noted: Escherichia coli AG100 WT.
A further data set has as its system Haemophilus influenzae. The data set is described as above. The data set is classed as cell-based. The conditions noted are these: Haemophilus influenzae Rd0894 (AcrA-).
Where [3] appears, read: 100 mg/kg, Compound W dosed PO 100 mg/kg in 0.5% MC, read-out: AUCextrap.
[4] abbreviates: plasma, 30 mg/kg, Compound W dosed orally 30 mg/kg in 0.5% MC.
[5] abbreviates: plasma, 100 mg/kg, Compound W dosed orally 100 mg/kg in 0.5% MC.
Setting [6] is: plasma, 300 mg/kg, Compound W dosed orally 300 mg/kg in 0.5% MC.
Where [7] appears, read: plasma, 300 mg/kg, Compound W dosed orally 300 mg/kg in 20% CAPT, 1% HPMC-AS, 1% PVP.

Regarding `CCNC(=O)Nc1nc2cc(-c3cnc(C(C)(C)O)nc3)c(F)c([C@H]3CCCO3)c2[nH]1` [Compound 23, 1-ethyl-3-[6-fluoro-5-[2-(1-hydroxy-1-methyl-ethyl)pyrimidin-5-yl]-7-[(2R)-tetrahydrofuran-2-yl]-1H-benzimidazol-2-yl]urea], the AUC amounted to 24800 ng·h/mL in data set [1] (30 mg/kg, Compound W dosed PO 30 mg/kg in 0.5% MC, read-out: AUCextrap); 76900 ng·h/mL in data set [1] (setting [3]); 155000 ng·h/mL in data set [1] (300 mg/kg, Compound W dosed PO 300 mg/kg in 0.5% MC, read-out: AUCextrap); 311 ng·h/mL in data set [2] (in vivo, 3 mg/kg, rat plasma, Compound W dosed orally 3 mg/kg in 0.5% MC, read-out: AUC); 22500 ng·h/mL in data set [2] (in vivo, 30 mg/kg, rat plasma, Compound W dosed orally 30 mg/kg in 0.5% MC, read-out: AUC); 77100 ng·h/mL in data set [2] (in vivo, 100 mg/kg, rat plasma, Compound W dosed orally 100 mg/kg in 0.5% MC, read-out: AUC). For the same compound, the AUC in data set [2] (in vivo, 300 mg/kg, rat plasma, Compound W dosed orally 300 mg/kg in 0.5% MC, read-out: AUC) is 223000 ng·h/mL; in data set [2] (in vivo, 300 mg/kg, rat plasma, Compound W dosed orally 300 mg/kg in 20% CAPT, 1% HPMC-AS, 1% PVP, read-out: AUC), 295000 ng·h/mL; in data set [2] (plasma, 3 mg/kg, Compound W dosed orally 3 mg/kg in 0.5% MC, read-out: AUCextrap), 314 ng·h/mL; in data set [2] (plasma, 30 mg/kg, Compound W dosed orally 30 mg/kg in 0.5% MC, read-out: AUCextrap), 22600 ng·h/mL; in data set [2] (plasma, 100 mg/kg, Compound W dosed orally 100 mg/kg in 0.5% MC, read-out: AUCextrap) it was 77400 ng·h/mL. Further, the Cmax was 117 ng/mL in data set [2] (in vivo, 3 mg/kg, rat plasma, Compound W dosed orally 3 mg/kg in 0.5% MC); 2900 ng/mL in data set [2] (in vivo, 30 mg/kg, rat plasma, Compound W dosed orally 30 mg/kg in 0.5% MC); 6600 ng/mL in data set [2] (in vivo, 100 mg/kg, rat plasma, Compound W dosed orally 100 mg/kg in 0.5% MC); 11700 ng/mL in data set [2] (in vivo, 300 mg/kg, rat plasma, Compound W dosed orally 300 mg/kg in 0.5% MC); 16200 ng/mL in data set [2] (in vivo, 300 mg/kg, rat plasma, Compound W dosed orally 300 mg/kg in 20% CAPT, 1% HPMC-AS, 1% PVP).

What is called Tmax is the time at which the peak concentration occurs. As for `CCNC(=O)Nc1nc2cc(-c3cnc(C(C)(C)OP(=O)([O-])[O-])nc3)c(F)c([C@H]3CCCO3)c2[nH]1.[Na+].[Na+]` [Compound W, disodium (R)-2-(5-(2-(3-ethylureido)-6-fluoro-7-(tetrahydrofuran-2-yl)-1H-benzo[d]imidazol-5-yl)pyrimidin-2-yl)propan-2-yl phosphate], the “conversion in vivo into Compound 23” value in data set [1] (in at least rats, dogs and monkeys (all pharmacokinetic studies)) is “converted in vivo into Compound 23”. Moreover, the AUC in data set [1] (30 mg/kg, Compound W dosed PO 30 mg/kg in 0.5% MC, read-out: AUC) stood at 45.3 ng·h/mL; in data set [1] (100 mg/kg, Compound W dosed PO 100 mg/kg in 0.5% MC, read-out: AUC), 432 ng·h/mL; in data set [1] (setting [3]), 437 ng·h/mL; in data set [1] (300 mg/kg, Compound W dosed PO 300 mg/kg in 0.5% MC, read-out: AUC), 3690 ng·h/mL; in data set [2] (plasma, 30 mg/kg, Compound W dosed orally 30 mg/kg in 0.5% MC, read-out: AUC), 178 ng·h/mL; in data set [2] (plasma, 100 mg/kg, Compound W dosed orally 100 mg/kg in 0.5% MC, read-out: AUC), 61 ng·h/mL. Also, the AUC stood at 324 ng·h/mL in data set [2] (plasma, 300 mg/kg, Compound W dosed orally 300 mg/kg in 0.5% MC, read-out: AUC) and 2370 ng·h/mL in data set [2] (plasma, 300 mg/kg, Compound W dosed orally 300 mg/kg in 20% CAPT, 1% HPMC-AS, 1% PVP, read-out: AUC). Besides, the MIC against Escherichia coli was > 16 µg/mL; with Haemophilus influenzae, 0.25 µg/mL. For the same compound, the time to peak (Tmax) amounted to 3.3 h in data set [2] (setting [4]), 0.8 h in data set [2] (setting [5]), 1.2 h in data set [2] (setting [6]) and 1.8 h in data set [2] (setting [7]). In addition, the Cmax in data set [2] (setting [4]) is 22 ng/mL; in data set [2] (setting [5]), 21 ng/mL; in data set [2] (setting [6]), 2330 ng/mL; in data set [2] (setting [7]) it was 600 ng/mL.
